Values joined by “and” are separate entries in the source; they are usually repeats but may differ in a detail not shown here. Equal values may be shown once.
Experiments:
PfCRT variant E207A = assay: Drug uptake assay, oocytes expressing E207A; format: cell-based, Plasmodium falciparum; settings: for E207A transport activity pH 6.0 / E207A transport activity pH 4.5: 50 µM external drug, 1 h
Experimental: Site-directed mutagenesis of PfCRT^Dd2 was performed as described using the megaprimer method with overlap extension[21],[54]. The primer pairs used are listed in Supplementary Table 6. Please note that a codon-optimized and oocyte-adapted version of PfCRT^Dd2 was used[22] (Supplementary Fig. 16). The resulting DNA fragment was cloned into the SP64T expression vector and verified by sequencing.
(§1) Oocytes were obtained as described previously. Briefly, adult (>2 years old) female X. laevis frogs (NASCO) were anesthetized in a cooled solution of ethyl 3-amino benzoate methanesulfonate (0.1%, w/v), followed by a surgical removal of parts of the ovary. The ovary lobes were carefully dissected and small pieces of oocytes were incubated in Ca^2+-free ND96 buffer (96 mM NaCl, 2 mM KCl, 1 mM MgCl2 buffered with 5 mM HEPES/NaOH, pH 7.5) supplemented with collagenase D (0.1%, w/v; Roche), BSA (0.5%, w/v), and 9 mm Na2HPO4 at 18 °C for 14-16 h while gentle shaking. After incubation, the oocytes were carefully washed several times with ND96 buffer (96 mM NaCl, 2 mM KCl, 1.8 mM CaCl2, 1 mM MgCl2 buffered with 5 mM HEPES/NaOH, pH 7.5) supplemented with 100 mg l^−1 gentamycin). Defolliculated and healthy-looking stage V-VI oocytes were manually selected for RNA microinjection. The RNA was generated as following: The codon-optimized sequences of PfCRT variants were cloned into the pSP64T expression vector. After vector linearization using the restriction endonucleases BamHI or SalI (New England Biolabs), transcription was performed using the in vitro SP6 mMessage mMachine Kit (Ambion)[34]. The obtained RNA was kept at −80 °C and diluted with nuclease-free water to a concentration of 0.6 μg μl^−1. Precision-bore glass capillary tubes (3.5-inch glass capillaries; Drummond Scientific Co.) were pulled on a vertical puller (P-87 Flaming/Brown micropipette puller, Sutter Instrument Co.), graduated, and placed on a microinjector (Nanoject II Auto-Nanoliter Injector, Drummond Scientific Co.). 50 nl of nuclease-free water alone (control oocytes) or 50 nl of 0.6 μg μl^−1 RNA were injected under stereomicroscopic control. Injected oocytes were incubated for 46–72 h at 18 °C with twice-daily buffer changes before usage in experiments.
Drug uptake assays were performed as described previously[21],[22],[24],[34]. […] The direction of radio-labeled drug transport is here from the mostly acidic extracellular solution (pH 4.5 or 6.0, as indicated) into the oocyte cytosol (pH ∼ 7.2), which corresponds to the efflux of drug from the acidic digestive vacuole (pH 5.2) into the parasite cytoplasm (pH 7.2). The topology of PfCRT in the oolemma is such that both the N- and C-terminus face the extracellular milieu[3],[22]. In the parasite, the N- and C-terminus face the lumen of the digestive vacuole. […] For determination of the amount of drug uptake for each oocyte, the reaction medium was removed and the oocytes were washed three times with 2 ml of ice-cold ND96 buffer. Each oocyte was individually transferred to a scintillation vial containing 5% sodium dodecyl sulfate (200 μl) for lysis. […] Oocytes that were injected with water instead of RNA were analyzed in parallel, representing the uptake of a drug by diffusion and/or endogenous permeation pathways. The resulting value represents the “background“ level of drug accumulation in oocytes (in-depth discussion in[22]). The specific PfCRT-mediated uptake was determined by subtracting the corresponding background value measured in water-injected oocytes from that of PfCRT-expressing oocytes. In all cases, at least three separate experiments were performed on oocytes from different frogs (biological replicate), and for each condition in an experiment, measurements were made from 10 oocytes per treatment. For pH 5.5, 6.0, and 6.5, ND96 was buffered with 5 mM MES/Tris base.

PfCRT^Dd2 = PfCRT^Dd2 (Plasmodium falciparum, UniProt Q9N623, A220S/I356T/K76T/M74I/N326S/N75E/Q271E/R371I); assay: Drug uptake assay, X. laevis oocytes expressing PfCRT^Dd2; format: cell-based; settings: for PfCRTDd2 transport activity pH 6.0: 50 µM external drug, 1 h, independent samples (means in Fig 4c)
PfCRT^Dd2, sequence (Q9N623 whole entry A220S/I356T/K76T/M74I/N326S/N75E/Q271E/R371I): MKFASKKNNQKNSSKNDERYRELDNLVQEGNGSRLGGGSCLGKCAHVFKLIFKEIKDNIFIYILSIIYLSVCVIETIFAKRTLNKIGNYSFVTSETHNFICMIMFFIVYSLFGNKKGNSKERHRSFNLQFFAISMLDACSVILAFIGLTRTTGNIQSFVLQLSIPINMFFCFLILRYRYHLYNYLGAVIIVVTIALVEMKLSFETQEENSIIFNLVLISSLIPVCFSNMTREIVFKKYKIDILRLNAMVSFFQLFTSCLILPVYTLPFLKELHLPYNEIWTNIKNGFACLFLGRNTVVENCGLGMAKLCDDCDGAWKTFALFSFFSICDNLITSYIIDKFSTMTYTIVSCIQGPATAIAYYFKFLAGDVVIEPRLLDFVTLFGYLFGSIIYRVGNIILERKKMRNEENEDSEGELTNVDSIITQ
Experimental: as §1
Drug uptake assays were performed as described previously[21],[22],[24],[34]. […] The direction of radio-labeled drug transport is here from the mostly acidic extracellular solution (pH 4.5 or 6.0, as indicated) into the oocyte cytosol (pH ∼ 7.2), which corresponds to the efflux of drug from the acidic digestive vacuole (pH 5.2) into the parasite cytoplasm (pH 7.2). The topology of PfCRT in the oolemma is such that both the N- and C-terminus face the extracellular milieu[3],[22]. In the parasite, the N- and C-terminus face the lumen of the digestive vacuole. […] For determination of the amount of drug uptake for each oocyte, the reaction medium was removed and the oocytes were washed three times with 2 ml of ice-cold ND96 buffer. Each oocyte was individually transferred to a scintillation vial containing 5% sodium dodecyl sulfate (200 μl) for lysis. […] Oocytes that were injected with water instead of RNA were analyzed in parallel, representing the uptake of a drug by diffusion and/or endogenous permeation pathways. The resulting value represents the “background“ level of drug accumulation in oocytes (in-depth discussion in[22]). The specific PfCRT-mediated uptake was determined by subtracting the corresponding background value measured in water-injected oocytes from that of PfCRT-expressing oocytes. In all cases, at least three separate experiments were performed on oocytes from different frogs (biological replicate), and for each condition in an experiment, measurements were made from 10 oocytes per treatment. For pH 5.5, 6.0, and 6.5, ND96 was buffered with 5 mM MES/Tris base. For pH 4.5, 5 mM Homo-Pipes was used as a buffer and 5 mM HEPES for uptake at pH 7.0.

[1] = tested on: CCN(CC)CCCC(C)Nc1ccnc2cc(Cl)ccc12; assay: as above; format: cell-based, Plasmodium falciparum; settings: 18.0 °C
Experimental: Oocytes were obtained as described previously[24]. Briefly, adult (>2 years old) female X. laevis frogs (NASCO) were anesthetized in a cooled solution of ethyl 3-amino benzoate methanesulfonate (0.1%, w/v), followed by a surgical removal of parts of the ovary. The ovary lobes were carefully dissected and small pieces of oocytes were incubated in Ca^2+-free ND96 buffer (96 mM NaCl, 2 mM KCl, 1 mM MgCl2 buffered with 5 mM HEPES/NaOH, pH 7.5) supplemented with collagenase D (0.1%, w/v; Roche), BSA (0.5%, w/v), and 9 mm Na2HPO4 at 18 °C for 14-16 h while gentle shaking. After incubation, the oocytes were carefully washed several times with ND96 buffer (96 mM NaCl, 2 mM KCl, 1.8 mM CaCl2, 1 mM MgCl2 buffered with 5 mM HEPES/NaOH, pH 7.5) supplemented with 100 mg l^−1 gentamycin). Defolliculated and healthy-looking stage V-VI oocytes were manually selected for RNA microinjection. […]
Drug uptake assays were performed as described previously[21],[22],[24],[34]. […] Oocytes that were injected with water instead of RNA were analyzed in parallel, representing the uptake of a drug by diffusion and/or endogenous permeation pathways. […] The specific PfCRT-mediated uptake was determined by subtracting the corresponding background value measured in water-injected oocytes from that of PfCRT-expressing oocytes. […]

[2] = CQ transport in the presence of verapamil, independent samples

Row | Compound | E207A transport activity pH 6.0 (PfCRT variant E207A; independent samples) | PfCRTDd2 transport activity pH 6.0 (PfCRT^Dd2) | E207A transport activity pH 4.5 (PfCRT variant E207A; independent samples) | further results
1 | COc1ccc(CCN(C)CCCC(C#N)(c2ccc(OC)c(OC)c2)C(C)C)cc1OC (stereo not drawn) [VP, verapamil] | – | – | – | E207A CQ + VP transport activity pH 6.0 (PfCRT variant E207A; [2]): 0.66 pmol oocyte-1 h-1 and 0.74 pmol oocyte-1 h-1 and 0.45 pmol oocyte-1 h-1; effect on CQ transport by E207A (PfCRT variant E207A; pH 6.0, in words): blocked CQ transport; PfCRTDd2 CQ + VP transport activity pH 6.0 (PfCRT^Dd2; [2]): 1.45 pmol oocyte-1 h-1 and 1.56 pmol oocyte-1 h-1 and 1.71 pmol oocyte-1 h-1 and 1.84 pmol oocyte-1 h-1; effect on CQ transport by PfCRT^Dd2 (PfCRT^Dd2; pH 6.0, in words): blocked CQ transport
2 | CC[C@]1(O)C[C@@H]2CN(CCc3c([nH]c4ccccc34)[C@@](C(=O)OC)(c3cc4c(cc3OC)N(C)[C@H]3[C@@](O)(C(=O)OC)[C@H](OC(C)=O)[C@]5(CC)C=CCN6CC[C@]43[C@@H]65)C2)C1 [VNB, vinblastine] | n.u. | n.u. | – | transport of the drug by E207A (PfCRT variant E207A; pH 6.0, in words): Neither PfCRT^Dd2 nor E207A acted on; transport of the drug by PfCRT^Dd2 (PfCRT^Dd2; pH 6.0, in words): Neither PfCRT^Dd2 nor E207A acted on
3 | PfCRT^Dd2 (Plasmodium falciparum; A220S/I356T/K76T/M74I/N326S/N75E/Q271E/R371I) | – | – | – | Km ([1]; other: PfCRT^Dd2, pH 4.5, pH 4.5): 200 ± 60 µM; Km ([1]; other: PfCRT^Dd2, pH 6.0, pH 6.0): 270 ± 50 µM
4 | CC[C@]1(O)C[C@H]2CN(CCc3c([nH]c4ccccc34)[C@@](C(=O)OC)(c3cc4c(cc3OC)N(C=O)[C@H]3[C@@](O)(C(=O)OC)[C@H](OC(C)=O)[C@]5(CC)C=CCN6CC[C@]43[C@@H]65)C2)C1 [VNC, vincristine] | n.u. | n.u. | – | transport of the drug by E207A (PfCRT variant E207A; pH 6.0, in words): Neither PfCRT^Dd2 nor E207A acted on; transport of the drug by PfCRT^Dd2 (PfCRT^Dd2; pH 6.0, in words): Neither PfCRT^Dd2 nor E207A acted on
5 | NC12CC3CC(CC(C3)C1)C2 [AMA, amantadine] | – | 3.96 pmol oocyte-1 h-1 and 5.23 pmol oocyte-1 h-1 and 3.48 pmol oocyte-1 h-1 | – | –
6 | C=C[C@H]1C[N@@]2CC[C@H]1C[C@H]2[C@H](O)c1ccnc2ccc(OC)cc12 [QN, quinine] | 2.22 pmol oocyte-1 h-1 and 1.72 pmol oocyte-1 h-1 and 2.41 pmol oocyte-1 h-1 and 2.60 pmol oocyte-1 h-1 | 6.11 pmol oocyte-1 h-1 and 5.59 pmol oocyte-1 h-1 and 5.35 pmol oocyte-1 h-1 and 4.57 pmol oocyte-1 h-1 | 1.81 pmol oocyte-1 h-1 and 1.79 pmol oocyte-1 h-1 and 2.22 pmol oocyte-1 h-1 and 1.30 pmol oocyte-1 h-1 and 1.76 pmol oocyte-1 h-1 | –
7 | C=C[C@H]1C[N@@]2CC[C@H]1C[C@@H]2[C@@H](O)c1ccnc2ccc(OC)cc12 [QD, quinidine] | 2.30 pmol oocyte-1 h-1 and 2.18 pmol oocyte-1 h-1 and 1.61 pmol oocyte-1 h-1 and 1.77 pmol oocyte-1 h-1 and 2.20 pmol oocyte-1 h-1 | 4.23 pmol oocyte-1 h-1 and 3.26 pmol oocyte-1 h-1 and 4.00 pmol oocyte-1 h-1 and 4.74 pmol oocyte-1 h-1 and 4.12 pmol oocyte-1 h-1 and 4.59 pmol oocyte-1 h-1 | 1.55 pmol oocyte-1 h-1 and 1.47 pmol oocyte-1 h-1 and 1.04 pmol oocyte-1 h-1 and 1.61 pmol oocyte-1 h-1 | –
8 | Clc1ccc2c(N3CCN(CCCN4CCN(c5ccnc6cc(Cl)ccc56)CC4)CC3)ccnc2c1 [PPQ, piperaquine] | 8.93 pmol oocyte-1 h-1 and 12.01 pmol oocyte-1 h-1 and 12.48 pmol oocyte-1 h-1 and 12.86 pmol oocyte-1 h-1 | 28.14 pmol oocyte-1 h-1 and 21.87 pmol oocyte-1 h-1 and 30.01 pmol oocyte-1 h-1 and 33.33 pmol oocyte-1 h-1 | 9.66 pmol oocyte-1 h-1 and 9.12 pmol oocyte-1 h-1 and 9.57 pmol oocyte-1 h-1 and 5.62 pmol oocyte-1 h-1 | –

From article PMC10349806 (Nature Communications, 2023)
